For one data set, the system named is PANC‐1 xenograft tumors. The experiment in a line: In vivo NIRF imaging of PANC‐1 xenograft mice. On the set-up: species or system mouse (BALB/c nude). The source says:
During imaging, mice were anesthetized with 2% isoflurane.

In another data set the test system is PANC‐1 cells. The experiment in a line: Fluorescence imaging of PANC‐1 cells with labelled YW7 probes. In kind it is cell-based, human. The following applies: 1, 2, 4 μM, 1 h; red filter 700–780 nm. On the procedure: (§1) PANC‐1 and HPDE6‐C7 cells were seeded in six‐well plates at a density of 3 × 10^5 cells·mL^−1 and incubated overnight. The cells were incubated with 25 μM FITC‐YW7 for 30 min and 1 h for flow cytometry analysis of bound and internalized peptide, and cells were incubated with 1, 2, 4 μM FITC‐YW7 or Cy7‐YW7 for 1 h for fluorescence imaging of the live cells. Cells were washed with PBS three times and centrifuged for 5 min after 37 °C incubation. Si‐ANXA2‐ or si‐NC‐transfected PANC‐1 cells were detached with nonenzymatic dissociation solution from six‐well plates. 20 μM FITC‐YW7 was added to the suspended cells and incubated at 37 °C for 15 min. Cells were washed with PBS and centrifuged for 5 min repeating three times. The supernatant was then discarded and the cells were resuspended in PBS. Percent of total cells with fluorescent signals was determined by flow cytometry using a FACSCelesta flow cytometer (BD Biosciences, San Jose, CA, USA). Fluorescence intensity was quantified by an imaging system (Berthold LB983, Bad Wildbad, Sttugart, Germany).
(§2) Supplementary file MOL2-17-872-s002.tif: Fig. S3. Fluorescent‐labeled YW7 probes imaging in vitro. […] P values were determined using paired Student's t‐test. *P < 0.05 versus HPDE6‐C7 (Cy7‐YW7); ^# P < 0.05, ^## P < 0.01 versus PBS; ^$ P < 0.05, ^$$ P < 0.01 versus Cy7. […]

In data set [1] the test system is PANC‐1 and HPDE6‐C7 cells. Kind of data set: Fluorescence imaging, PANC‐1 versus HPDE6‐C7 cells. Format: cell-based, human. On the procedure: as §1, §2
Data set [2] deals with ANXA2 (purified recombinant). Kind of data set: ANXA2 affinity column binding with LC/MS detection. The following applies: ANXA2 0.7 mg on CNBr‐activated Sepharose; 1 mg YW7; 1 h at 4 °C; UPLC‐G2XS‐QTOF/MS. On the procedure: To prepare the ANXA2‐immobilized affinity column, CNBr‐activated Sepharose (GE Healthcare Bio‐Sciences AB, Uppsala, Sweden) was swelled by 1 mM HCl and coupling buffer. Purified recombinant ANXA2 of 0.7 mg was loaded onto the resin and incubated at 4 °C overnight. After blocking with ethanolamine, the resin was washed with 50 mM Tris–HCl (pH 8.0) and 50 mM Glycine‐0.5 M NaCl (pH 4.0) buffers alternatively for three rounds. Then, the resin was washed with PBS and 1 mg YW7 dissolved in DEPC was added to the ANXA2‐loaded resin. After binding for 1 h at 4 °C, the resin was washed again with 50 mM Tris–HCl (pH 8.0) and 50 mM Glycine‐0.5 M NaCl (pH 4.0) buffers. Eluents were eventually mixed with 50% acetonitrile and analyzed by UPLC‐G2XS‐QTOF/MS (Waters, Milford, MA, USA).

The subject of another data set is ANXA2. Kind of data set: siRNA knockdown of ANXA2 in PANC‐1 cells (western blotting, qPCR). As to conditions: 48 h after transfection, lipofectamine 3000; n = 3. In kind it is cell-based, human. On the procedure: ANXA2 expression in human cells and patients' tissues was determined by western blotting. Cells were lysed on ice in RIPA Lysis Buffer (Beyotime, Shanghai, China) with 1% PMSF for 30 min. Fresh tissues were suspended in RIPA Lysis Buffer with 1% PMSF, homogenized for 2 min, and then lysed on ice for another 30 min. The supernatant was collected and the protein concentration was determined after centrifuging for 10 min at 8000 g . The protein concentration was detected by BCA Protein Assay Kit (Beyotime). Proteins extracts were separated by 12% SDS/PAGE gel and then transferred to the PVDF membranes. Next, the membranes were blocked with 5% skimmed milk powder at room temperature for 1 h. Rabbit primary antibodies specific to ANXA2 (1 : 1000; Cell Signaling Technology, Billerica, CA, USA; #8235S) were used to incubate the membranes at 4 °C overnight. Anti‐β‐tubulin mouse primary antibodies (1 : 5000; EarthOx Life Science, Millbrae, CA, USA; E021040‐01) were applied as a loading control. […] The band density was quantified by IMAGEJ software (National Institutes of Health, Bethesda, MD, USA).
Small interfering RNA (primer sequences: forward 5′‐[…]‐3′ and reverse 5′‐[…]‐3′) was used to downregulate the expression of ANXA2 (si‐ANXA2). […] Knockdown efficiency was evaluated by western blotting and quantitative real‐time PCR. […]
For orientation: Immunoblotting shows a protein as a band on a membrane.

Data set [3] concerns the target T1, ANXA2 on pancreatic cells (human (endogenous in PANC-1 and …, UniProt P07355 1-339)).
T1 construct: annexin A2, endogenous in the human pancreatic cancer cell line PANC-1 and the normal human pancreatic ductal cell line HPDE6-C7; which cell line was used is told in each assay's format; also called annexin A2; source: endogenous, on PANC-1 cells; endogenous, on HPDE6-C7 cells
The experiment in a line: other fluorescence titration; PANC-1 cells suspended in FITC-YW7 (0-1.5 μM), 37 °C, 30 min; washed with PBS; fluorescence of the cells read in a plate reader (490/518 nm); apparent Kd. As to conditions: one partner purified.

Data set [4] deals with T2, GST-fused ANXA2 recombinant protein (UniProt P07355 1-339).
T2 construct: product of 62 kD with GST; No cleavage of GST is described; The size of 62 kD would fit whole ANXA2 (36 kD) plus GST; also called GST-ANXA2; annexin A2; source: E. coli BL21 (DE3), purified (GST tag purification resin)
The experiment in a line: MST; FITC-YW7 at constant concentration, unlabeled ANXA2 diluted in a gradient; MST buffer with 0.05% Tween-20; Monolith NT.115, standard capillaries; apparent KD. As to conditions: both partners purified.

“Also recorded” adds a separate entry of the source. Primed or numbered codes have the meaning given here. Where no end group is shown, it is not given here. The star is where a group is joined. FITC = O=C1OC2(c3ccc(O)cc3Oc3cc(O)ccc32)c2ccc(NC(=S)*)cc21; PEG3′ = not defined here; Ahx = NCCCCCC(=O)O

T2 sequence (P07355 whole entry, the tested form may be a part): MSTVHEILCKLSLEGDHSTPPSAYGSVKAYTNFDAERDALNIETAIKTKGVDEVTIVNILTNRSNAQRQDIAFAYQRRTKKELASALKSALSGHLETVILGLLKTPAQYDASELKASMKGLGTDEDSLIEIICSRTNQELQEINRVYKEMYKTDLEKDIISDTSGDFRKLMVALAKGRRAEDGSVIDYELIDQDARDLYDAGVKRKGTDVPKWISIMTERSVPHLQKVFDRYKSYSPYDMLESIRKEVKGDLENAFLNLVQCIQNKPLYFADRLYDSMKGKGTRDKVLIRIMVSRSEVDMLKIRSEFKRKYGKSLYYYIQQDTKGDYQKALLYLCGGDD
T1 sequence (P07355 whole entry): as the sequence (P07355 whole entry, the tested form may be a part) above

For the molecule “Cy7‐YW7: Cy7 linked to the N terminal of YW7 peptide via spacer of PEG3; NIRF probe ({Cy7-PEG3′}-YWRGVYN)”, in the data set on PANC‐1 xenograft tumors (8 nmol i.v.), the “TBR, as quoted in discussion” value is ~ 2.7 and the “earliest time of significant tumor‐to‐background contrast” value came out at 1 h. In the data set on PANC‐1 xenograft tumors (8 nmol i.v., 2.5 h after injection, n = 4, mean ± SD, P < 0.05 Cy7‐YW7 vs Cy7), the “tumor‐to‐background ratio (TBR)” value is on record as 2.7 ± 0.6. Moreover, the “tumor fluorescence / contrast” value in the data set with PANC‐1 xenograft tumors (8 nmol i.v., Cy7‐YW7 versus Cy7, n = 4) was “stronger fluorescence signals in tumor tissues; also recorded: higher than Cy7; also recorded: enhanced tumor sensitivity and specificity from 1 h after injection”. Besides, in the data set with PANC‐1 xenograft tumors (8 nmol i.v., images at 0, 1, 2, 2.5, 3 h), the “time of highest TBR after injection” value came to 2.5 h. In addition, the “TBR compared to Cy7 alone” value with PANC‐1 xenograft tumors (intravenous injection, in abstract) is ~ 2.7 ‐fold. The “internalization by PANC‐1 cells, concentration dependence” value in the data set on PANC‐1 cells was “preferred to be internalized by PANC‐1 cells in a dose‐dependent manner”. In addition, the “fluorescence signal, PANC‐1 versus HPDE6‐C7” value in data set [1] (4 μM in PBS) was “stronger fluorescence signal of Cy7‐YW7 was detected after internalization into PANC‐1 cells compared to HPDE6‐C7”. Further, the “uptake in PANC‐1 compared to HPDE6‐C7 cells” value in data set [1] (summary statement of abstract) is listed as “significantly higher uptake in PANC‐1 cells”.
YWRGVYN [YW7]: in data set [2], the “binding to ANXA2 column” value was “eluted from ANXA2‐loading column after incubation with ANXA2 recombinant protein for 1 h and identified”.
Consider “si‐ANXA2: Small interfering RNA, forward 5′‐AGACCAAAGGUGUGGAUGAUU‐3′ and reverse 5′‐UCAUCCACACCUUUGGUCUUU‐3′ (chemistry not fully specified)”, for which, in the data set on ANXA2, the “ANXA2 protein and mRNA level after knockdown” value was “Downregulated ANXA2 relative protein (D, E) and mRNA (F) levels”.

B1: FITC-labeled YW7 (peptide)
peptide: {FITC-Ahx}-YWRGVYN
notes: heptapeptide YW7 selected from the Ph.D.-7 phage display library; also called FITC-YW7; source: synthetic peptide, Sangon Biotech
Consider B1, for which the Kd in data set [3] was determined as 0.0866 µM; in data set [4], 12 µM.
